# From patent US20230203043A1, “NOVEL IMIDAZOPYRAZINE DERIVATIVES” (Hoffmann-La Roche Inc., priority 2020, published 2023)
# Structures can show the parent of a compound that is named as a salt.
# Test system: Acinetobacter baumannii ATCC17961
# Test: Antimicrobial susceptibility testing: 90% growth inhibitory concentration (IC90) determination in Iso-Sensitest broth, OD600 growth
# Type: cell-based
# Settings: Acinetobacter baumannii, ATCC17961, 16 h, read-out: A. baumannii ATCC 17961 IC90 (uM), strain ATCC 17961, OD600 growth over 16 h
# Method in brief: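 Growth inhibition is calculated during the logarithmic phase from OD600 readings taken every 20 minutes across 16 h at 35±2° C. Bacteria at ~5×10^(5) CFU/ml face twofold dilution series (e.g. 50 to 0.097 μM final).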
row,Compound,IC90 [µM]
1,"C#CCn1cc(-c2cnc3c(Nc4ccc(C(=O)NCCCNCCCCNCCCN)c(CC)c4)nccn23)c(C(F)(F)F)n1 [Example 155, N-[3-[4-(3-aminopropylamino)butylamino]propyl]-2-ethyl-4-[[3-[1-prop-2-ynyl-3-(trifluoromethyl)pyrazol-4-yl]imidazo[1,2-a]pyrazin-8-yl]amino]benzamide trifluoroacetate]",0.585
2,"COc1ccc(Cn2cc(-c3cnc4c(Nc5ccc(C(=O)N6CCNCC6)c(Cl)c5)nccn34)c(C(F)(F)F)n2)nn1 [Example 159, [2-chloro-4-[[3-[1-[(6-methoxypyridazin-3-yl)methyl]-3-(trifluoromethyl)pyrazol-4-yl]imidazo[1,2-a]pyrazin-8-yl]amino]phenyl]-piperazin-1-ylmethanone formate]",0.408
3,"Cc1cnc(Cn2cc(-c3cnc4c(Nc5ccc(C(=O)N6CCNCC6)c(Cl)c5)nccn34)c(C(F)(F)F)n2)nc1 [Example 160, [2-chloro-4-[[3-[1-[(5-methylpyrimidin-2-yl)methyl]-3-(trifluoromethyl)pyrazol-4-yl]imidazo[1,2-a]pyrazin-8-yl]amino]phenyl]-piperazin-1-ylmethanone formate]",0.63
4,"Cc1ccnc(Cn2cc(-c3cnc4c(Nc5ccc(C(=O)N6CCNCC6)c(Cl)c5)nccn34)c(C(F)(F)F)n2)n1 [Example 161, [2-chloro-4-[[3-[1-[(4-methylpyrimidin-2-yl)methyl]-3-(trifluoromethyl)pyrazol-4-yl]imidazo[1,2-a]pyrazin-8-yl]amino]phenyl]-piperazin-1-ylmethanone formate]",0.764

# Same assay, conditions: Acinetobacter baumannii, ATCC17961, 16 h, strain ATCC 17961, OD600 growth over 16 h, read-out: A. baumannii ATCC 17961 IC90
row,IC90 [µM],Compound
1,0.173,"CCc1cc(Nc2nccn3c(-c4cn(CCF)nc4C(F)(F)F)cnc23)ccc1C(=O)NCCOC[C@@H](C)N [Example 150, N-[2-[(2R)-2-aminopropoxy]ethyl]-2-ethyl-4-[[3-[1-(2-fluoroethyl)-3-(trifluoromethyl)pyrazol-4-yl]imidazo[1,2-a]pyrazin-8-yl]amino]benzamide]"
2,0.204,"CCc1cc(Nc2nccn3c(-c4cn(CC(F)F)nc4C(F)(F)F)cnc23)ccc1C(=O)NCCOC[C@@H](C)N [Example 151, N-[2-[(2R)-2-aminopropoxy]ethyl]-4-[[3-[1-(2,2-difluoroethyl)-3-(trifluoromethyl)pyrazol-4-yl]imidazo[1,2-a]pyrazin-8-yl]amino]-2-ethylbenzamide]"
3,0.241,"CCc1cc(Nc2nccn3c(-c4cn(CC#N)nc4C(F)(F)F)cnc23)ccc1C(=O)NCCOC[C@H](C)N [Example 152, N-[2-[(2S)-2-aminopropoxy]ethyl]-4-[[3-[1-(cyanomethyl)-3-(trifluoromethyl)pyrazol-4-yl]imidazo[1,2-a]pyrazin-8-yl]amino]-2-ethylbenzamide]"
4,0.311,"CCc1cc(Nc2nccn3c(-c4cn(CC(F)F)nc4C(F)(F)F)cnc23)ccc1C(=O)NCCOC[C@H](C)N [Example 153, N-[2-[(2S)-2-aminopropoxy]ethyl]-4-[[3-[1-(2,2-difluoroethyl)-3-(trifluoromethyl)pyrazol-4-yl]imidazo[1,2-a]pyrazin-8-yl]amino]-2-ethylbenzamide]"
5,0.391,"O=C(NC1CCN(C(=O)c2ccc(Nc3nccn4c(-c5c[nH]nc5C(F)(F)F)cnc34)cc2Cl)CC1)[C@@H]1C[C@@H](O)CN1 [Example 154, (2S,4R)-N-[1-[2-chloro-4-[[3-[3-(trifluoromethyl)-1H-pyrazol-4-yl]imidazo[1,2-a]pyrazin-8-yl]amino]benzoyl]piperidin-4-yl]-4-hydroxypyrrolidine-2-carboxamide]"
6,0.627,"CCc1cc(Nc2nccn3c(-c4cn(CC#N)nc4C(F)(F)F)cnc23)ccc1C(=O)NCCOC[C@@H](C)N [Example 156, N-[2-[(2R)-2-aminopropoxy]ethyl]-4-[[3-[1-(cyanomethyl)-3-(trifluoromethyl)pyrazol-4-yl]imidazo[1,2-a]pyrazin-8-yl]amino]-2-ethylbenzamide]"
7,0.969,"O=C(NC1CCN(C(=O)c2ccc(Nc3nccn4c(-c5c[nH]nc5C(F)(F)F)cnc34)cc2Cl)CC1)C1CCNCC1 [Example 157, N-[1-[2-chloro-4-[[3-[3-(trifluoromethyl)-1H-pyrazol-4-yl]imidazo[1,2-a]pyrazin-8-yl]amino]benzoyl]piperidin-4-yl]piperidine-4-carboxamide]"
8,4.03,"CCc1cc(Nc2nccn3c(-c4cn(CCF)nc4C(F)(F)F)cnc23)ccc1C(=O)NCCOC[C@H](C)N [Example 158, N-[2-[(2S)-2-aminopropoxy]ethyl]-2-ethyl-4-[[3-[1-(2-fluoroethyl)-3-(trifluoromethyl)pyrazol-4-yl]imidazo[1,2-a]pyrazin-8-yl]amino]benzamide]"
9,1.22,"O=C(NCC(=O)N1CCNCC1)c1ccc(Nc2nccn3c(-c4c[nH]nc4C(F)(F)F)cnc23)cc1Cl [Example 162, 2-chloro-N-(2-oxo-2-piperazin-1-ylethyl)-4-[[3-[3-(trifluoromethyl)-1H-pyrazol-4-yl]imidazo[1,2-a]pyrazin-8-yl]amino]benzamide]"

# Further lines, the compound ahead of its results:
row,Compound,IC90 [µM]
1,"NC1CCN(C(=O)CNC(=O)c2ccc(Nc3nccn4c(-c5c[nH]nc5C(F)(F)F)cnc34)cc2Cl)CC1 [Example 136, N-[2-(4-aminopiperidin-1-yl)-2-oxoethyl]-2-chloro-4-[[3-[3-(trifluoromethyl)-1H-pyrazol-4-yl]imidazo[1,2-a]pyrazin-8-yl]amino]benzamide]",1.33
2,"N[C@@H]1CCN(C(=O)CNC(=O)c2ccc(Nc3nccn4c(-c5c[nH]nc5C(F)(F)F)cnc34)cc2Cl)C1 [Example 137, N-[2-[(3R)-3-aminopyrrolidin-1-yl]-2-oxoethyl]-2-chloro-4-[[3-[3-(trifluoromethyl)-1H-pyrazol-4-yl]imidazo[1,2-a]pyrazin-8-yl]amino]benzamide]",1.86
3,"NC1CC(NC(=O)CNC(=O)c2ccc(Nc3nccn4c(-c5c[nH]nc5C(F)(F)F)cnc34)cc2Cl)C1 (centres unmarked) [Example 138, N-[2-[(3-aminocyclobutyl)amino]-2-oxoethyl]-2-chloro-4-[[3-[3-(trifluoromethyl)-1H-pyrazol-4-yl]imidazo[1,2-a]pyrazin-8-yl]amino]benzamide]",2.01
4,"O=C(CNC(=O)c1ccc(Nc2nccn3c(-c4c[nH]nc4C(F)(F)F)cnc23)cc1Cl)N[C@@H]1CCNC1 [Example 139, 2-chloro-N-[2-oxo-2-[[(3R)-pyrrolidin-3-yl]amino]ethyl]-4-[[3-[3-(trifluoromethyl)-1H-pyrazol-4-yl]imidazo[1,2-a]pyrazin-8-yl]amino]benzamide]",2.8
5,"NC1CN(C(=O)CNC(=O)c2ccc(Nc3nccn4c(-c5c[nH]nc5C(F)(F)F)cnc34)cc2Cl)C1 [Example 141, N-[2-(3-aminoazetidin-1-yl)-2-oxoethyl]-2-chloro-4-[[3-[3-(trifluoromethyl)-1H-pyrazol-4-yl]imidazo[1,2-a]pyrazin-8-yl]amino]benzamide]",4.05
6,"N#CCn1cc(-c2cnc3c(Nc4ccc(C(=O)N5CCC(NC(=O)C6CCNCC6)CC5)c(Cl)c4)nccn23)c(C(F)(F)F)n1 [Example 142, N-[1-[2-chloro-4-[[3-[1-(cyanomethyl)-3-(trifluoromethyl)pyrazol-4-yl]imidazo[1,2-a]pyrazin-8-yl]amino]benzoyl]piperidin-4-yl]piperidine-4-carboxamide]",0.554
7,"N#CCn1cc(-c2cnc3c(Nc4ccc(C(=O)N5CCC(NC(=O)[C@@H]6C[C@@H](O)CN6)CC5)c(Cl)c4)nccn23)c(C(F)(F)F)n1 [Example 143, (2S,4R)-N-[1-[2-chloro-4-[[3-[1-(cyanomethyl)-3-(trifluoromethyl)pyrazol-4-yl]imidazo[1,2-a]pyrazin-8-yl]amino]benzoyl]piperidin-4-yl]-4-hydroxypyrrolidine-2-carboxamide]",0.555
8,"CCc1cc(Nc2nccn3c(-c4c[nH]nc4C(F)(F)F)cnc23)ccc1C(=O)N[C@H](C)CN [Example 145, N-[(2R)-1-aminopropan-2-yl]-2-ethyl-4-[[3-[3-(trifluoromethyl)-1H-pyrazol-4-yl]imidazo[1,2-a]pyrazin-8-yl]amino]benzamide trifluoroacetate]",1.9
9,"C#CCn1cc(-c2cnc3c(Nc4ccc(C(=O)NCCOC[C@H](C)N)c(CC)c4)nccn23)c(C(F)(F)F)n1 [Example 147, N-[2-[(2S)-2-aminopropoxy]ethyl]-2-ethyl-4-[[3-[1-prop-2-ynyl-3-(trifluoromethyl)pyrazol-4-yl]imidazo[1,2-a]pyrazin-8-yl]amino]benzamide]",0.049
10,"C#CCn1cc(-c2cnc3c(Nc4ccc(C(=O)NCCOC[C@@H](C)N)c(CC)c4)nccn23)c(C(F)(F)F)n1 [Example 149, N-[2-[(2R)-2-aminopropoxy]ethyl]-2-ethyl-4-[[3-[1-prop-2-ynyl-3-(trifluoromethyl)pyrazol-4-yl]imidazo[1,2-a]pyrazin-8-yl]amino]benzamide]",0.102

# Same assay, conditions: strain ATCC 17961, OD600 growth over 16 h, read-out: A. baumannii ATCC 17961 IC90
row,IC90 [µM],Compound
1,0.335,"O=C(NC1CCN(C(=O)c2ccc(Nc3nccn4c(-c5c[nH]nc5C(F)(F)F)cnc34)cc2Cl)CC1)N[C@H]1CCNC1 [Example 144, 1-[1-[2-choro-4-[[3-[3-(trifluoromethyl)-1H-pyrazol-4-yl]imidazo[1,2-a]pyrazin-8-yl]amino]benzoyl]piperidin-4-yl]-3-[(3S)-pyrrolidin-3-yl]urea]"
2,0.084,"C=CCn1cc(-c2cnc3c(Nc4ccc(C(=O)NCCOC[C@@H](C)N)c(CC)c4)nccn23)c(C(F)(F)F)n1 [Example 148, N-[2-[(2R)-2-aminopropoxy]ethyl]-2-ethyl-4-[[3-[1-prop-2-enyl-3-(trifluoromethyl)pyrazol-4-yl]imidazo[1,2-a]pyrazin-8-yl]amino]benzamide]"

row,Compound,IC90 [µM]
1,"C[C@H](NC(=O)c1ccc(Nc2nccn3c(-c4c[nH]nc4C(F)(F)F)cnc23)cc1Cl)C(=O)N1CCNCC1 [Example 140, 2-chloro-N-[(2S)-1-oxo-1-piperazin-1-ylpropan-2-yl]-4-[[3-[3-(trifluoromethyl)-1H-pyrazol-4-yl]imidazo[1,2-a]pyrazin-8-ylamino]benzamide formate]",3.31
